Assay results from publication PMC5218480 (PLoS ONE, 2017).

System: MV-4-11 cells
Assay: Gene expression microarray analysis (Affymetrix PrimeView) and GSEA
Assay type: cell-based, human
Parameters: RFU PODN (11730768_x_at) / Fold change /veh PODN (11730768_x_at) / RFU LINC00158 (11744669_a_at) / Fold change /veh LINC00158 (11744669_a_at) / RFU DUSP10 (11751237_a_at) / Fold change /veh DUSP10 (11751237_a_at) / RFU ID3 (11757404_x_at) / Fold change /veh ID3 (11757404_x_at) / RFU PLEKHG5 (11737974_s_at) / Fold change /veh PLEKHG5 (11737974_s_at) / RFU LRRC4B (11730491_at) / Fold change /veh LRRC4B (11730491_at) / RFU GIMAP4 (11747438_a_at) / Fold change /veh GIMAP4 (11747438_a_at) / RFU KRT8 (11758183_x_at) / Fold change /veh KRT8 (11758183_x_at) / RFU CNN1 (11734310_a_at) / Fold change /veh CNN1 (11734310_a_at) / RFU VPS37D (11726825_at) / Fold change /veh VPS37D (11726825_at) / RFU C10orf10 (11716522_x_at) / Fold change /veh C10orf10 (11716522_x_at) / RFU KIR2DL2 /// KIR2DL4 /// KIR2DL5A /// KIR2DL5B /// KIR2DS1 /// KIR2DS2 /// KIR2DS3 /// KIR2DS4 /// KIR3DL3 /// KIR3DL3 /// KIR3DS1 (11738374_at) / Fold change /veh KIR2DL2 /// KIR2DL4 /// KIR2DL5A /// KIR2DL5B /// KIR2DS1 /// KIR2DS2 /// KIR2DS3 /// KIR2DS4 /// KIR3DL3 /// KIR3DL3 /// KIR3DS1 (11738374_at) / RFU C1QL1 (11718748_at) / Fold change /veh C1QL1 (11718748_at) / RFU TMPRSS4 (11747572_a_at) / Fold change /veh TMPRSS4 (11747572_a_at) / RFU HAMP (11756126_x_at) / Fold change /veh HAMP (11756126_x_at) / RFU RNFT2 (11725882_a_at) / Fold change /veh RNFT2 (11725882_a_at) / RFU NR4A2 (11747474_a_at) / Fold change /veh NR4A2 (11747474_a_at) / RFU ABCC12 (11746883_a_at) / Fold change /veh ABCC12 (11746883_a_at) / RFU TMEM136 (11760407_x_at) / Fold change /veh TMEM136 (11760407_x_at) / RFU CLDN22 /// WWC2 (11732394_at) / Fold change /veh CLDN22 /// WWC2 (11732394_at) / RFU HLA-DPB1 (11760878_x_at) / Fold change /veh HLA-DPB1 (11760878_x_at) / RFU SPINT1 (11716480_a_at) / Fold change /veh SPINT1 (11716480_a_at) / RFU GAP43 (11754022_s_at) / Fold change /veh GAP43 (11754022_s_at) / RFU A4GNT (11735810_at) / Fold change /veh A4GNT (11735810_at) / RFU PRB3 (11715151_x_at) / Fold change /veh PRB3 (11715151_x_at) / RFU TUBB4B (11761932_at) / Fold change /veh TUBB4B (11761932_at) / RFU CAPN14 (11732068_a_at) / Fold change /veh CAPN14 (11732068_a_at) / RFU TMCC2 (11721928_a_at) / Fold change /veh TMCC2 (11721928_a_at) / RFU IRGQ (11745062_a_at) / Fold change /veh IRGQ (11745062_a_at) / RFU FAM174B (11720279_a_at) / Fold change /veh FAM174B (11720279_a_at) / RFU TMPRSS4 (11748680_a_at) / Fold change /veh TMPRSS4 (11748680_a_at) / RFU FAM212B (11763350_a_at) / Fold change /veh FAM212B (11763350_a_at) / RFU PLEKHG5 (11743358_a_at) / Fold change /veh PLEKHG5 (11743358_a_at) / RFU ZSCAN30 (11745921_a_at) / Fold change /veh ZSCAN30 (11745921_a_at) / RFU CMKLR1 (11741424_a_at) / Fold change /veh CMKLR1 (11741424_a_at) / RFU LOC101060620 /// MAPK8IP1 (11723275_at) / Fold change /veh LOC101060620 /// MAPK8IP1 (11723275_at) / RFU SPTSSB (11747773_x_at) / Fold change /veh SPTSSB (11747773_x_at) / RFU PRSS12 (11739890_at) / Fold change /veh PRSS12 (11739890_at) / RFU BIN1 (11741810_x_at) / Fold change /veh BIN1 (11741810_x_at) / RFU WNT11 (11732464_a_at) / Fold change /veh WNT11 (11732464_a_at) / RFU C10orf10 (11716521_a_at) / Fold change /veh C10orf10 (11716521_a_at) / RFU C5orf56 (11738089_at) / Fold change /veh C5orf56 (11738089_at) / RFU CYB561 (11721691_x_at) / Fold change /veh CYB561 (11721691_x_at) / RFU ANKRD19P (11752326_a_at) / Fold change /veh ANKRD19P (11752326_a_at) / RFU OR2T12 /// OR2T33 /// OR2T8 (11738714_s_at) / Fold change /veh OR2T12 /// OR2T33 /// OR2T8 (11738714_s_at) / RFU VCAN (11748164_a_at) / Fold change /veh VCAN (11748164_a_at) / RFU JSRP1 (11732532_at) / Fold change /veh JSRP1 (11732532_at) / RFU KRTAP10-11 (11738290_x_at) / Fold change /veh KRTAP10-11 (11738290_x_at) / RFU MYO3A (11730013_a_at) / Fold change /veh MYO3A (11730013_a_at) / RFU EBF3 (11725865_a_at) / Fold change /veh EBF3 (11725865_a_at) / RFU CAMK2N1 (11719241_x_at) / Fold change /veh CAMK2N1 (11719241_x_at) / RFU C5orf56 (11738088_a_at) / Fold change /veh C5orf56 (11738088_a_at) / RFU OLFML3 (11715873_a_at) / Fold change /veh OLFML3 (11715873_a_at) / RFU LOC100653217 /// NTM (11731650_a_at) / Fold change /veh LOC100653217 /// NTM (11731650_a_at) / RFU MAPK11 (11762145_a_at) / Fold change /veh MAPK11 (11762145_a_at) / RFU FIZ1 (11724087_x_at) / Fold change /veh FIZ1 (11724087_x_at) / RFU OASL (11726364_x_at) / Fold change /veh OASL (11726364_x_at) / RFU SOX15 (11748057_x_at) / Fold change /veh SOX15 (11748057_x_at) / RFU CD79A (11719716_a_at) / Fold change /veh CD79A (11719716_a_at) / RFU HIST1H1D (11736915_at) / Fold change /veh HIST1H1D (11736915_at) / RFU CASKIN2 (11723855_a_at) / Fold change /veh CASKIN2 (11723855_a_at) / RFU LOC730098 (11760151_x_at) / Fold change /veh LOC730098 (11760151_x_at) / RFU OR4N2 (11742367_at) / Fold change /veh OR4N2 (11742367_at) / RFU PRRT2 (11749266_a_at) / Fold change /veh PRRT2 (11749266_a_at) / RFU SNX32 (11753110_a_at) / Fold change /veh SNX32 (11753110_a_at) / RFU CDHR5 (11726645_a_at) / Fold change /veh CDHR5 (11726645_a_at) / RFU RCAN1 (11760418_a_at) / Fold change /veh RCAN1 (11760418_a_at) / RFU FAM167A (11723789_a_at) / Fold change /veh FAM167A (11723789_a_at) / RFU FAM26E (11764081_at) / Fold change /veh FAM26E (11764081_at) / RFU ISYNA1 (11749810_s_at) / Fold change /veh ISYNA1 (11749810_s_at) / RFU ACY1 (11761880_at) / Fold change /veh ACY1 (11761880_at) / RFU 11764098_at / Fold change /veh 11764098_at / RFU SAMD14 (11745864_x_at) / Fold change /veh SAMD14 (11745864_x_at) / RFU NPB (11741838_a_at) / Fold change /veh NPB (11741838_a_at) / RFU TMPRSS6 (11731388_a_at) / Fold change /veh TMPRSS6 (11731388_a_at) / RFU KRTAP10-2 (11738614_at) / Fold change /veh KRTAP10-2 (11738614_at) / RFU ARHGAP8 /// PRR5-ARHGAP8 (11727945_x_at) / Fold change /veh ARHGAP8 /// PRR5-ARHGAP8 (11727945_x_at) / RFU KRTAP5-7 /// NADSYN1 (11734609_at) / Fold change /veh KRTAP5-7 /// NADSYN1 (11734609_at) / RFU RASL12 (11751679_a_at) / Fold change /veh RASL12 (11751679_a_at) / RFU CDKN2B (11736163_a_at) / Fold change /veh CDKN2B (11736163_a_at) / RFU PRF1 (11729649_at) / Fold change /veh PRF1 (11729649_at) / RFU, ZNF638 /// ZNF638-IT1 / Fold change vs veh, ZNF638 /// ZNF638-IT1 / RFU, PANK3 / Fold change vs veh, PANK3 / RFU, SH3YL1 / Fold change vs veh, SH3YL1 / RFU, ZEB2 / Fold change vs veh, ZEB2 / RFU, NRIP1 / Fold change vs veh, NRIP1 / RFU, PTTG1IP / Fold change vs veh, PTTG1IP / RFU, CAPN2 / Fold change vs veh, CAPN2 / RFU, MED14 / Fold change vs veh, MED14 / RFU, SNORA58 / Fold change vs veh, SNORA58 / RFU, C1orf63 / Fold change vs veh, C1orf63 / RFU, LRRFIP1 / Fold change vs veh, LRRFIP1 / RFU, NDUFAF7 / Fold change vs veh, NDUFAF7 / RFU, SLC12A2 / Fold change vs veh, SLC12A2 / RFU, IBTK / Fold change vs veh, IBTK / RFU, ESF1 / Fold change vs veh, ESF1 / Fold change vs veh, TMEM50B / RFU, TAOK1 / Fold change vs veh, TAOK1 / RFU, ACBD3 / Fold change vs veh, ACBD3 / RFU, TMA16 / Fold change vs veh, TMA16 / RFU, RWDD3 / Fold change vs veh, RWDD3 / RFU, BCAT1 / Fold change vs veh, BCAT1 / RFU, EDEM3 / Fold change vs veh, EDEM3 / RFU, TMEM33 / Fold change vs veh, TMEM33 / RFU, WDR75 / Fold change vs veh, WDR75 / RFU, AHCTF1 / Fold change vs veh, AHCTF1 / RFU, TFRC / Fold change vs veh, TFRC / RFU, ZDHHC17 / Fold change vs veh, ZDHHC17 / RFU, NOM1 / Fold change vs veh, NOM1 / RFU, ARL8B / Fold change vs veh, ARL8B / RFU, ZBTB11 / Fold change vs veh, ZBTB11 / RFU, TAMM41 / Fold change vs veh, TAMM41 / RFU, KIAA1704 /// LOC100996395 / Fold change vs veh, KIAA1704 /// LOC100996395 / RFU, ING1 / Fold change vs veh, ING1 / RFU, TRMT61B / Fold change vs veh, TRMT61B / RFU, FUBP3 / Fold change vs veh, FUBP3 / RFU, TP53 / Fold change vs veh, TP53 / RFU, TNKS2 / Fold change vs veh, TNKS2 / RFU, ZFP14 / Fold change vs veh, ZFP14 / RFU, ACTR2 / Fold change vs veh, ACTR2 / RFU, PPP3R1 / Fold change vs veh, PPP3R1 / RFU, PIK3R1 / Fold change vs veh, PIK3R1 / RFU, HNRNPA1 / Fold change vs veh, HNRNPA1 / RFU, RNF170 / Fold change vs veh, RNF170 / RFU, ZNF28 / Fold change vs veh, ZNF28 / RFU, RNGTT / Fold change vs veh, RNGTT / RFU, OGT / Fold change vs veh, OGT / RFU, BRD1 / Fold change vs veh, BRD1 / RFU, MARS / Fold change vs veh, MARS / RFU, ZNF655 / Fold change vs veh, ZNF655 / RFU, FAHD1 / Fold change vs veh, FAHD1 / RFU, BDP1 / Fold change vs veh, BDP1 / RFU, LRRCC1 / Fold change vs veh, LRRCC1 / RFU, ARID1A / Fold change vs veh, ARID1A / RFU, ZNF146 / Fold change vs veh, ZNF146 / RFU, ZNF330 / Fold change vs veh, ZNF330 / RFU, GPN3 / Fold change vs veh, GPN3 / RFU, C9orf123 / Fold change vs veh, C9orf123 / RFU, N4BP2L2 / Fold change vs veh, N4BP2L2 / RFU, ARFIP1 / Fold change vs veh, ARFIP1 / RFU, FAM179B / Fold change vs veh, FAM179B / RFU, BCL10 / Fold change vs veh, BCL10 / RFU, UHRF1BP1L / Fold change vs veh, UHRF1BP1L / RFU, BET1 / Fold change vs veh, BET1 / RFU, CNOT2 / Fold change vs veh, CNOT2 / RFU, ZNF268 / Fold change vs veh, ZNF268 / Fold change vs veh, ZNF507 / RFU, DGCR2 / Fold change vs veh, DGCR2 / RFU, WDSUB1 / Fold change vs veh, WDSUB1 / Fold change vs veh, HSP90B1 /// MIR3652 / RFU, ADSS / Fold change vs veh, ADSS / RFU, GK / Fold change vs veh, GK / RFU, ZNF148 / Fold change vs veh, ZNF148 / RFU, TAF9 / Fold change vs veh, TAF9 / RFU, SLC1A5 / Fold change vs veh, SLC1A5 / RFU, SLMO2 / Fold change vs veh, SLMO2 / RFU, ABCC4 / Fold change vs veh, ABCC4 / RFU, LOC101060439 /// RAP1B / Fold change vs veh, LOC101060439 /// RAP1B / RFU, RFX7 / Fold change vs veh, RFX7 / RFU, GTPBP10 / Fold change vs veh, GTPBP10 / RFU, CNEP1R1 / Fold change vs veh, CNEP1R1 / RFU, BIVM-ERCC5 /// ERCC5 / Fold change vs veh, BIVM-ERCC5 /// ERCC5 / RFU, ILF3 / Fold change vs veh, ILF3 / RFU 11762660_at / Fold change /veh 11762660_at / RFU VCAN (11757783_s_at) / Fold change /veh VCAN (11757783_s_at) / RFU DDX43 (11728927_at) / Fold change /veh DDX43 (11728927_at) / RFU KRT8 (11758188_x_at) / Fold change /veh KRT8 (11758188_x_at) / RFU NKD1 (11759106_at) / Fold change /veh NKD1 (11759106_at) / RFU SRD5A1 (11742802_a_at) / Fold change /veh SRD5A1 (11742802_a_at) / RFU TPSAB1 /// TPSB2 (11721975_s_at) / Fold change /veh TPSAB1 /// TPSB2 (11721975_s_at) / RFU GSTM3 (11746129_a_at) / Fold change /veh GSTM3 (11746129_a_at) / RFU IL23R (11737362_x_at) / Fold change /veh IL23R (11737362_x_at) / RFU TMEM51 (11727254_a_at) / Fold change /veh TMEM51 (11727254_a_at) / RFU PIWIL2 (11732686_x_at) / Fold change /veh PIWIL2 (11732686_x_at) / RFU ORM1 (11744905_x_at) / Fold change /veh ORM1 (11744905_x_at) / RFU CCDC152 (11743942_at) / Fold change /veh CCDC152 (11743942_at) / RFU ECM1 (11717891_a_at) / Fold change /veh ECM1 (11717891_a_at) / RFU IL23R (11748794_a_at) / Fold change /veh IL23R (11748794_a_at) / RFU TNFAIP8L3 (11732012_x_at) / Fold change /veh TNFAIP8L3 (11732012_x_at) / RFU MBOAT4 (11741988_at) / Fold change /veh MBOAT4 (11741988_at) / RFU 11764193_at / Fold change /veh 11764193_at / RFU TMEM53 (11763286_at) / Fold change /veh TMEM53 (11763286_at) / RFU MAGEB2 (11727129_at) / Fold change /veh MAGEB2 (11727129_at) / RFU TMEM200A (11744735_a_at) / Fold change /veh TMEM200A (11744735_a_at) / RFU CCDC152 (11751479_a_at) / Fold change /veh CCDC152 (11751479_a_at) / RFU FAM211A (11726209_a_at) / Fold change /veh FAM211A (11726209_a_at) / RFU RGS16 (11746705_a_at) / Fold change /veh RGS16 (11746705_a_at) / RFU VCAN (11755009_s_at) / Fold change /veh VCAN (11755009_s_at) / RFU RHOB (11743442_s_at) / Fold change /veh RHOB (11743442_s_at) / RFU RGS16 (11720943_a_at) / Fold change /veh RGS16 (11720943_a_at) / RFU RGS16 (11720944_at) / Fold change /veh RGS16 (11720944_at) / RFU, VPS4B / Fold change vs veh, VPS4B / RFU, CREB1 / Fold change vs veh, CREB1 / RFU, DNAJC13 / Fold change vs veh, DNAJC13 / RFU, GNAQ / Fold change vs veh, GNAQ / RFU, CDK5R1 / Fold change vs veh, CDK5R1 / RFU, ZRANB3 / Fold change vs veh, ZRANB3 / RFU, CUL4A / Fold change vs veh, CUL4A / RFU, CCNY / Fold change vs veh, CCNY / RFU, UFL1 / Fold change vs veh, UFL1 / RFU, COG3 / Fold change vs veh, COG3 / RFU, DIAPH2 / Fold change vs veh, DIAPH2 / RFU, SKA2 / Fold change vs veh, SKA2 / RFU, AFF3 / Fold change vs veh, AFF3 / RFU, LMF1 / Fold change vs veh, LMF1 / RFU, IPO11 / Fold change vs veh, IPO11 / RFU, DFFB / Fold change vs veh, DFFB / RFU, FOXP1 / Fold change vs veh, FOXP1 / RFU, CARD8 / Fold change vs veh, CARD8 / RFU, STRN3 / Fold change vs veh, STRN3 / RFU, ADK / Fold change vs veh, ADK / RFU, RASSF2 / Fold change vs veh, RASSF2 / RFU, WIPF1 / Fold change vs veh, WIPF1 / RFU, LARP1B / Fold change vs veh, LARP1B / RFU, RASA1 / Fold change vs veh, RASA1 / RFU, RB1 / Fold change vs veh, RB1 / RFU, PPFIA1 / Fold change vs veh, PPFIA1 / RFU, MAT2A / Fold change vs veh, MAT2A / RFU, CCT5 / Fold change vs veh, CCT5 / RFU, WDR92 / Fold change vs veh, WDR92 / RFU, CUX1 / Fold change vs veh, CUX1 / RFU, TTC7A / Fold change vs veh, TTC7A / RFU, TMEM135 / Fold change vs veh, TMEM135 / RFU, DEPTOR / Fold change vs veh, DEPTOR / RFU, CPM / Fold change vs veh, CPM / RFU, DNAJB6 / Fold change vs veh, DNAJB6 / RFU, CACNA2D3 / Fold change vs veh, CACNA2D3 / RFU, DTX4 / Fold change vs veh, DTX4 / RFU, TFCP2 / Fold change vs veh, TFCP2 / RFU, GMCL1 /// GMCL1P1 / Fold change vs veh, GMCL1 /// GMCL1P1 / RFU, AEBP2 / Fold change vs veh, AEBP2 / RFU, SNHG1 /// SNORD22 /// SNORD25 /// SNORD26 /// SNORD27 /// SNORD28 /// SNORD29 /// SNORD31 / Fold change vs veh, SNHG1 /// SNORD22 /// SNORD25 /// SNORD26 /// SNORD27 /// SNORD28 /// SNORD29 /// SNORD31 / Fold change (Aza/veh), C12orf56 (ProbeSet 11735607_a_at) / Fold change (ACY-1035/veh), C12orf56 (ProbeSet 11735607_a_at) / Fold change (Aza/veh), FGFR1OP (ProbeSet 11751329_s_at) / Fold change (ACY-1035/veh), FGFR1OP (ProbeSet 11751329_s_at) / Fold change (Aza/veh), VPS36 (ProbeSet 11739960_a_at) / Fold change (ACY-1035/veh), VPS36 (ProbeSet 11739960_a_at) / RFU SYPL1 (11715823_x_at) / Fold change /veh SYPL1 (11715823_x_at) / RFU IGFBP7 (11715501_s_at) / Fold change /veh IGFBP7 (11715501_s_at) / RFU REEP3 (11722064_at) / Fold change /veh REEP3 (11722064_at) / RFU IGLL1 (11728026_x_at) / Fold change /veh IGLL1 (11728026_x_at): dose or concentration left out as unconfirmed
Settings: MV-4-11 cells, 48 hours

In the case of Nc1ncn([C@@H]2O[C@H](CO)[C@@H](O)[C@H]2O)c(=O)n1 [azacitidine], the “Fold change /veh C1QL1 (11718748_at)” value is reported as 0.93.
